From US20240018163A1, “NEW THIAZOLOPYRIMIDINONE DERIVATIVES” (Hoffmann-La Roche Inc., priority 2021, published 2024)

system: mutant HTT protein (mHTT); assay: Homogeneous Time Resolved Fluorescence (HTRF) assay for HTT lowering; type: cell-based; details: reduction of mHTT in Huntington patient human cells (GENEAe020-A cell line), 48 hours incubation, mean from three replicates
Method: Homogeneous Time Resolved Fluorescence for HTT lowering
The HTRF assay was adapted from Weiss et al. (Analytical Biochemistry Volume 395, Issue 1, 1 Dec. 2009, Pages 8-15 and Analytical Biochemistry Volume 410, 2011, Pages 304-306) to cells from GENEAe020-A cell line (https://hpscreg.eu/cell-line/GENEAe020-A).
Compounds were tested for the effect of mutant HTT levels in Huntington patient human cells (GENEAe020-A cell line) using Homogeneous Time Resolved Fluorescence (HTRF) directed towards mutant HTT protein (mHTT). The GENEAe020-A cell line was derived by Genea Biocells from human blastocysts of HD donors. After assessing viability, cells were plated into 384 well collagen coated plates in growth media. Once cells adhered, media was removed and test compounds dissolved in DMSO were diluted with buffer solution and added to the adherent cells. Controls included experiments with no cells, DMSO with no compound, and Hsp90 inhibitor control. Cells were incubated with compounds and controls for 48 hours. Then, the cells were lysed and transferred to an assay plate containing HTRF labeled monoclonal antibodies developed by Paul Patterson (Ko et al., Brain Research Bulletin, Volume 56, Numbers 3 and 4, 2001, Pages 319-329) which recognize specific areas of the HTT protein. The terbium labeled “donor” antibody (2B7) binds to the N-terminus of the HTT protein and the Alexa488 labeled “acceptor” antibody (MW1) is specific for the polyglutamine region of the protein. Binding of the acceptor labeled antibody is more efficient for the extended polyglutamine repeats of mutant HTT protein which translates into a signal boost which enables the specific measurement of mutant HTT protein level. The HTRF donor and acceptor detection reagents were incubated with the cell lysate and the ratio between the signals of the two fluorophores is indicative of the relative quantities of mHTT.

SMILES | EC50
Cc1nc2c(C(F)(F)F)cc(-c3cc(=O)n4cc(N5CCNCC5)sc4n3)nc2o1 [Example 28, 7-[2-methyl-7-(trifluoromethyl)oxazolo[5,4-b]pyridin-5-yl]-2-piperazin-1-yl-thiazolo[3,2-a]pyrimidin-5-one] | 691 nM
Cc1cn2nc(-c3cc(=O)n4cc(N5CCN[C@@H](C)C5)sc4n3)cc(C)c2n1 [Example 6, 7-(2,8-dimethylimidazo[1,2-b]pyridazin-6-yl)-2-[(3S)-3-methylpiperazin-1-yl]thiazolo[3,2-a]pyrimidin-5-one] | 268 nM
Cc1cc(-c2cc(=O)n3cc([C@@H]4CCNC[C@@H]4F)sc3n2)nn2cc(Cl)nc12 [Example 43, 7-(2-chloro-8-methyl-imidazo[1,2-b]pyridazin-6-yl)-2-[(3R,4R)-3-fluoro-4-piperidyl]thiazolo[3,2-a]pyrimidin-5-one] | 152 nM
Cc1cn2nc(-c3cc(=O)n4cc([C@]5(F)CCNC[C@H]5F)sc4n3)cc(C)c2n1 (racemic) [Example 53, 7-(2,8-dimethylimidazo[1,2-b]pyridazin-6-yl)-2-[rac-(3R,4S)-3,4-difluoro-4-piperidyl]thiazolo[3,2-a]pyrimidin-5-one] | 132 nM
Cc1cn2nc(-c3cc(=O)n4cc([C@H]5[C@@H]6CNC[C@@H]65)sc4n3)cc(C)c2n1 [Example 55, 7-(2,8-dimethylimidazo[1,2-b]pyridazin-6-yl)-2-[rac-(1S,5R)-3-azabicyclo[3.1.0]hexan-6-yl]thiazolo[3,2-a]pyrimidin-5-one] | 65 nM
Cc1cn2nc(-c3cc(=O)n4cc([C@@H]5CCNC[C@H]5F)sc4n3)cc(C)c2n1 [Example 38, 7-(2,8-dimethylimidazo[1,2-b]pyridazin-6-yl)-2-[(3S,4R)-3-fluoro-4-piperidyl]thiazolo[3,2-a]pyrimidin-5-one] | 280 nM
Cc1cn2nc(-c3cc(=O)n4cc(N5CCN6CCC[C@H]6C5)sc4n3)cc(C)c2n1 [Example 9, 7-(2,8-dimethylimidazo[1,2-b]pyridazin-6-yl)-2-[(8aS)-3,4,6,7,8,8a-hexahydro-1H-pyrrolo[1,2-a]pyrazin-2-yl]thiazolo[3,2-a]pyrimidin-5-one] | 796 nM
Cc1cn2nc(-c3cc(=O)n4cc(N5C6CCC5CNC6)sc4n3)cc(C)c2n1 [Example 14, 2-(3,8-diazabicyclo[3.2.1]octan-8-yl)-7-(2,8-dimethylimidazo[1,2-b]pyridazin-6-yl)thiazolo[3,2-a]pyrimidin-5-one] | 931 nM
COc1cc(-c2cc(=O)n3cc([C@H]4CCNC[C@H]4F)sc3n2)nn2cc(C)nc12 [Example 35, 7-(8-methoxy-2-methyl-imidazo[1,2-b]pyridazin-6-yl)-2-[(3S,4S)-3-fluoro-4-piperidyl]thiazolo[3,2-a]pyrimidin-5-one] | 61 nM
COc1cc(-c2cc(=O)n3cc([C@H]4CCNC5(CC5)C4)sc3n2)nn2cc(C)nc12 [Example 40, 7-(8-methoxy-2-methyl-imidazo[1,2-b]pyridazin-6-yl)-2-[(7S)-4-azaspiro[2.5]octan-7-yl]thiazolo[3,2-a]pyrimidin-5-one] | 83 nM
COc1cc(-c2cc(=O)n3cc([C@]4(F)CCNC[C@@H]4F)sc3n2)nn2cc(C)nc12 (racemic) [Example 52, 7-(8-methoxy-2-methyl-imidazo[1,2-b]pyridazin-6-yl)-2-[rac-(3S,4S)-3,4-difluoro-4-piperidyl]thiazolo[3,2-a]pyrimidin-5-one] | 237 nM
Cc1cn2nc(-c3cc(=O)n4cc(N5C[C@@H]6C[C@H]5CN6)sc4n3)cc(C)c2n1 [Example 16, 7-(2,8-dimethylimidazo[1,2-b]pyridazin-6-yl)-2-[(1S,4S)-2,5-diazabicyclo[2.2.1]heptan-2-yl]thiazolo[3,2-a]pyrimidin-5-one] | 9540 nM
Cc1cn2nc(-c3cc(=O)n4cc(N5CCNCC5)sc4n3)ccc2n1 [Example 10, 7-(2-methylimidazo[1,2-b]pyridazin-6-yl)-2-piperazin-1-yl-thiazolo[3,2-a]pyrimidin-5-one] | 283 nM
Cc1cn2nc(-c3cc(=O)n4cc([C@@H]5CCNC[C@@H]5F)sc4n3)cc(C)c2n1 [Example 32, 7-(2,8-dimethylimidazo[1,2-b]pyridazin-6-yl)-2-[(3R,4R)-3-fluoro-4-piperidyl]thiazolo[3,2-a]pyrimidin-5-one] | 33 nM
Cc1cn2nc(-c3cc(=O)n4cc([C@H]5CCNC[C@@H]5F)sc4n3)cc(C)c2n1 [Example 39, 7-(2,8-dimethylimidazo[1,2-b]pyridazin-6-yl)-2-[(3R,4S)-3-fluoro-4-piperidyl]thiazolo[3,2-a]pyrimidin-5-one] | 53 nM
Cc1nc2c(C)cc(-c3cc(=O)n4cc([C@@H]5CCNC[C@@H]5F)sc4n3)nc2o1 [Example 44, 7-(2,7-dimethyloxazolo[5,4-b]pyridin-5-yl)-2-[(3R,4R)-3-fluoro-4-piperidyl]thiazolo[3,2-a]pyrimidin-5-one] | 59 nM
Cc1cn2nc(-c3cc(=O)n4cc(N5CCN[C@H](C)C5)sc4n3)cc(C)c2n1 [Example 7, 7-(2,8-dimethylimidazo[1,2-b]pyridazin-6-yl)-2-[(3R)-3-methylpiperazin-1-yl]thiazolo[3,2-a]pyrimidin-5-one] | 52 nM
Cc1cn2nc(-c3cc(=O)n4cc([C@H]5CCNC6(CC6)C5)sc4n3)cc(C)c2n1 [Example 36, 7-(2,8-dimethylimidazo[1,2-b]pyridazin-6-yl)-2-[(7S)-4-azaspiro[2.5]octan-7-yl]thiazolo[3,2-a]pyrimidin-5-one] | 55 nM
Cc1cn2nc(-c3cc(=O)n4cc([C@H]5C[C@H]6CNC[C@@H](C5)O6)sc4n3)cc(C)c2n1 [Example 48, 7-(2,8-dimethylimidazo[1,2-b]pyridazin-6-yl)-2-[rac-(1S,5R)-9-oxa-3-azabicyclo[3.3.1]nonan-7-yl]thiazolo[3,2-a]pyrimidin-5-one] | 92 nM
C=C(C)c1cc(-c2cc(=O)n3cc(N4CCNCC4)sc3n2)nn2cc(C)nc12 [Example 19, 7-(8-isopropenyl-2-methyl-imidazo[1,2-b]pyridazin-6-yl)-2-piperazin-1-yl-thiazolo[3,2-a]pyrimidin-5-one] | 3000 nM
Cc1cn2nc(-c3cc(=O)n4cc(N5CCNC(C)(C)C5)sc4n3)cc(C)c2n1 [Example 3, 7-(2,8-dimethylimidazo[1,2-b]pyridazin-6-yl)-2-(3,3-dimethylpiperazin-1-yl)thiazolo[3,2-a]pyrimidin-5-one] | 625 nM
Cc1cn2nc(-c3cc(=O)n4cc([C@]5(F)CCNC[C@@H]5F)sc4n3)cc(C)c2n1 (racemic) [Example 54, 7-(2,8-dimethylimidazo[1,2-b]pyridazin-6-yl)-2-[rac-(3S,4S)-3,4-difluoro-4-piperidyl]thiazolo[3,2-a]pyrimidin-5-one] | 556 nM
COc1cc(-c2cc(=O)n3cc(C4(F)CCNCC4)sc3n2)nn2cc(C)nc12 [Example 42, 2-(4-fluoro-4-piperidyl)-7-(8-methoxy-2-methyl-imidazo[1,2-b]pyridazin-6-yl)thiazolo[3,2-a]pyrimidin-5-one] | 53 nM
Cc1cn2nc(-c3cc(=O)n4cc(C5CCNCC5)sc4n3)cc(C)c2n1 [Example 24, 7-(2,8-dimethylimidazo[1,2-b]pyridazin-6-yl)-2-(4-piperidyl)thiazolo[3,2-a]pyrimidin-5-one] | 28 nM
Cc1cn2nc(-c3cc(=O)n4cc([C@H]5C[C@H]6CNC[C@@H](C5)O6)sc4n3)cc(C)c2n1 [Example 47, 7-(2,8-dimethylimidazo[1,2-b]pyridazin-6-yl)-2-[rac-(1R,5S)-9-oxa-3-azabicyclo[3.3.1]nonan-7-yl]thiazolo[3,2-a]pyrimidin-5-one] | 330 nM
COc1cc(-c2cc(=O)n3cc([C@H]4C[C@H]5CNC[C@@H](C4)O5)sc3n2)nn2cc(C)nc12 [Example 50, 7-(8-methoxy-2-methyl-imidazo[1,2-b]pyridazin-6-yl)-2-[rac-(1S,5R)-9-oxa-3-azabicyclo[3.3.1]nonan-7-yl]thiazolo[3,2-a]pyrimidin-5-one] | 57 nM
COc1cc(-c2cc(=O)n3cc(N4CCNCC4)sc3n2)nn2cc(C)nc12 [Example 13, 7-(8-methoxy-2-methyl-imidazo[1,2-b]pyridazin-6-yl)-2-piperazin-1-yl-thiazolo[3,2-a]pyrimidin-5-one] | 118 nM
Cc1cn2nc(-c3cc(=O)n4cc(N5CCNCC5)sc4n3)cc(C(F)(F)F)c2n1 [Example 11, 7-[2-methyl-8-(trifluoromethyl)imidazo[1,2-b]pyridazin-6-yl]-2-piperazin-1-yl-thiazolo[3,2-a]pyrimidin-5-one] | 19 nM
COc1cc(-c2cc(=O)n3cc([C@@]4(F)CCNC[C@@H]4F)sc3n2)nn2cc(C)nc12 [Example 59, 7-(8-methoxy-2-methyl-imidazo[1,2-b]pyridazin-6-yl)-2-[(3S,4R)-3,4-difluoro-4-piperidyl]thiazolo[3,2-a]pyrimidin-5-one] | 428 nM
